Test results published in patent US11918565B1, “Treatment of post-operative pain via sciatic nerve block with sustained-release liposomal anesthetic compositions” (Pacira Pharmaceuticals, Inc., priority 2022, dated 2024).
Structures can show the parent of a compound that is named as a salt.

Assays:
[1] = tested on: subjects undergoing bunionectomy (postsurgical pain, operative foot); assay: NRS pain intensity scores after sciatic (popliteal fossa) nerve block, Phase 3 clinical trial #1; format: in vivo, human
Method: Clinical Study #1 was a Phase 3, multicenter, randomized, double-blind, active-controlled study in 180 subjects undergoing bunionectomy. Subjects received a sciatic (in the popliteal fossa) nerve block with a single dose of either […] 266 mg ([…] 133 mg (EXP133), or 0.25% bupivacaine HCl (50 mg; BUP50). The study was conducted in two parts (Part A and Part B). Part A was to be completed and analyzed before enrollment in Part B was initiated. Part A was a 3-arm cohort with 66 subjects undergoing bunionectomy to obtain information on pharmacokinetics (PK), pharmacodynamics (PD), efficacy, and safety. Subjects were randomized (1:1:1) to the EXP266, EXP133, and BUP50 treatment arms. Part B was a 2-arm cohort with 119 subjects undergoing bunionectomy to evaluate the efficacy and safety of […] compared with bupivacaine HCl. The dose of the […] arm in Part B was determined based on the interim analysis of the Part A cohort results. […] An unscheduled pain intensity assessment using the NRS (measured as “On a scale from 0 to 10, where 0 equals no pain and 10 equals the worst possible pain, how much pain are you experiencing in your operative foot right now?”) was to be completed immediately prior to administration of any breakthrough pain medication up to 96 h post-surgery. Medications were administered PRN; opioids were not to be given on a pre-determined schedule. […] All postsurgical analgesics administered, were to be recorded through hospital discharge. […]

[2] = tested on: subjects undergoing bunionectomy; assay: Safety: treatment-emergent adverse events, SAEs, AESIs, vital signs, EKG through POD14, clinical trial #1; format: in vivo, human
From the text: Safety assessments included monitoring of AEs from the time of randomization through POD 14. Safety endpoints include incidence of treatment-emergent AEs and SAEs from the start of the nerve block procedure through POD 14.
Safety endpoints included incidence of treatment emergent adverse events (AEs) and serious adverse events (SAEs) from start of the nerve block procedure through POD14.
Adverse event verbatim terms are mapped to preferred terms and related system organ class using the Medical Dictionary for Regulatory Activities (MedDRA). Events that start prior to the start of study drug administration are identified in a by-subject listings. Incidence rates of TEAEs and the proportion of subject prematurely withdrawn from the study due to a TEAE is shown for each treatment arm. […] Incidence rates of SAEs is shown for each treatment arm.
An AE that occurred after administration of the study treatment was considered a treatment-emergent adverse event (TEAE). A continuous AE with varying grades of severity was to be recorded as 1 AE. The highest grade of severity experienced by that subject during the course of the continuous AE was to be recorded.
General guidelines are provided below: • Unrelated: A causal relationship between the study drug and the AE could be easily ruled out (e.g., based on the temporal sequence, absence of a reasonable pathophysiological mechanism, or direct evidence of actual cause). • Unlikely: A clinical event with a temporal relationship to study drug administration that made a causal relationship improbable and in which other drugs, chemicals, or underlying disease provided a plausible explanation. • Possible: A clinical event with a reasonable time sequence to administration of the study drug but that could also be explained by a concurrent disease or other drugs or chemicals. • Probable: A clinical event with a reasonable time sequence to administration of the study drug unlikely to be attributed to a concurrent disease or other drugs or chemicals and that followed a clinically reasonable response on withdrawal (dechallenge). • Definite: The pharmacological properties of the study drug(s) or of the substance class, and the course of the AE after dechallenge and, if applicable, after rechallenge, and/or specific test indicated involvement of the study drug(s) in the occurrence/worsening of the AE, and no indication of other causes existed.
Based on review of all peripheral nerve blocks, the following conditions were considered to be Adverse Events of Special Interest (AESIs) upon review of the AEs: • Falls • Persistent tingling • Persistent numbness • Persistent weakness • Hypersensitivity • Seizures • Tremors • Dizziness • Hematoma formation • Cardiovascular depression • Dyspnea • Cardiovascular arrest • Altered sensorium • Visual disturbances • Local anesthetic systemic toxicity
However, death, in and of itself, was not an AE; it was an outcome. The cause of death was the AE.

[3] = EXP266 Part A, EXP133 and BUP50 Part A+B

`CCCCN1CCCCC1C(=O)Nc1c(C)cccc1C` (stereo not drawn) [BUP50, bupivacaine HCl] was tested, and the “mean AUC of average pain over the last 24 h post-surgery from POD1 through POD4” value [1, 3] was 16.1, the “mean AUC of worst pain over the last 24 h post-surgery from POD1 through POD4” value [1, 3] was 25.2 and the “time post-surgery at which mean current pain intensity peaked” value ([1]; post-surgery) was 36 h. The “subjects with a clinically significant abnormal EKG finding” value ([2]; EXP133 on POD2, BUP50 on POD1) was 1 subject, the “subjects with treatment-emergent SAEs related to study drug” value ([2]; EXP266: hypertension and pyrexia, BUP50: atrioventricular block second degree, both discontinued) was 1 subject and the “proportion of subjects with a treatment-related TEAE” value [2, 3] was 2.4%. For the same compound, the “subjects that had SAEs” value ([2]; EXPAREL (266 mg), bupivacaine HCl) was 1 subject, the “AESI of atrioventricular block second degree considered possibly related to study drug” value ([2]; human, in vivo) was 1 subject and the “AESI of muscular weakness considered possibly related to study drug” value ([2]; human, in vivo) was 1 subject. For the same compound, the “TEAE constipation, subjects” value ([2]; human, in vivo) was 31.7%, the “TEAE nausea, subjects” value ([2]; human, in vivo) was 23.2% and the “number of subjects with ≥1 TEAE related to study drug” value ([2]; human, in vivo) was 2 subjects. The “subjects who had ≥1 AESI” value ([2]; human, in vivo) was 4 subjects, the “subjects with a moderate TEAE” value ([2]; human, in vivo) was 12.2% and the “proportion of subjects who reported TEAEs” value ([2]; through POD14) was 54.9%.
